Broadly, the Km is the substrate concentration at which the rate is half of its maximum. As a reminder, the Ki is a measure of affinity in units of concentration, obtained from inhibition or displacement.

From patent publication US6743609B1, “Linoleate isomerase” (Arkion Life Sciences LLC, priority 1997, dated 2004) come the findings set out here.

One experiment deals with 9,11 linoleate isomerase. The experiment in a line: Test of possible inducers of the 9,11 linoleate isomerase in the growth medium. The class given is cell-based, Lactobacillus reuteri. As to conditions: 100 mg/l in the growth medium. How it is done: Several substances were tested as possible inducers of the 9,11 linoleate isomerase. The materials tested included: lauric acid, myristic acid, palmitic acid, palmitoleic acid, oleic acid, linoleic acid, linolenic acid, oleic acid stearyl ester, linoleyl alcohol, linoleic acid methyl ester, linoleic acid ethyl ester, stearic acid and linoleic acid methyl ester. They were added to the growth medium at a 100 mg/l level.

The test system of experiment [1] is P. acnes ATCC 6919 linoleate isomerase. The experiment in a line: Effect of cofactors, metals, chelators and sulfhydryl reagents on isomerase activity of crude soluble enzyme preparation. The class given is biochemical, Propionibacterium acnes. As to conditions: for effect of possible cofactor on isomerase activity: 60 minute assays. How it is done:
A number of possible cofactors were tested for their effect on isomerase activity, including NAD, NADH, NADP, NADPH, FAD, FMN, ADP, ATP and glutathione.
(§1) Generally, the isomerase was assayed using an endpoint assay after 30 to 60 minutes incubation at room temperature. FIG. 18 (time course assay at different linoleic acid levels) and FIG. 19 (end point assay at different linoleic acid levels) show the effect of increasing substrate concentration on formation of […].

Experiment [2] has as its system Lactobacillus reuteri PYR8 9,11 linoleate isomerase (whole cells). The experiment in a line: Whole-cell biotransformation of linoleic acid, effect of product and substrate on isomerase. In kind it is cell-based. As to conditions: 700 ppm CLA from recycled reaction broth, 1000 ppm linoleic acid. The source says:
The following example describes the determination of conditions to improve enzyme stability and performance and on testing the limitations of the biotransformation process. Whole cells of L. reuteri PYR8 were used in all biotransformation experiments described below.
The effect of substrate and product on the enzyme performance was also investigated, as well as the possibility of recycling the cells. The effect of CLA on the reaction was studied by adding different concentrations of either a mixture of isomers (Sigma material, approximately 41% 9,11 isomer and 48% 10,12 CLA), or just 9,11 CLA (Matreya material, approximately 77% 9,11 CLA). Concentrations from 500 to 3000 ppm were tested. Some experiments were also performed recycling the broth from a previous biotransformation reaction with L. reuteri PYR8, resulting in an initial CLA concentration around 700 ppm. In every case, 1000 ppm linoleic acid were added. […] In the same period, almost complete conversion of the linoleic acid was obtained in the control without exogenous CLA. However, the effect was not detected when the CLA present came from recycled reaction broth. […] The results may indicate that some of the impurities present in the chemically produced CLA may be stronger inhibitors of the 9,11 isomerase than the product itself. […]

Experiment [3] has as its system C. sporogenes ATCC 25762 linoleate isomerase. The experiment in a line: Effect of additives, buffer components and detergents on C. sporogenes isomerase activity. In kind it is biochemical, Clostridium sporogenes. How it is done: It has been reported that solubilization in the presence of lysophosphatidylcholine (LPC) allows higher detergent concentrations to be used, thus allowing more complete membrane protein solubilization. CaCl2 can activate enzymes, such as some nucleases.
A third nonionic detergent, octyl glucoside (OG) was tested for its ability to solubilize the C. sporogenes linoleate isomerase.

The subject of experiment [4] is Clostridium sporogenes ATCC 25762 linoleate isomerase. Description: Linoleate isomerase activity versus linoleic acid concentration. In kind it is biochemical. As to conditions: tested from 0 to 100 ppm, FIG. 26. The method, then: (§2) About 50 to about 250 μL of enzyme sample was added to 1.5 mL of enzyme assay buffer for reaction. About 1 to about 2 mL of aqueous phase was separated from the enzyme reaction and was extracted with about 3 mL of hexane. […] Depending on the level of activity, assay mixtures of chromatography fractions were incubated at room temperature from about 1 to about 24 hours before extraction with hexane.
Temperature optimization with crude extracts was carried out at 4° C., room temperature (˜25° C.) and 37° C. The best temperature for the isomerase activity was room temperature (FIG. 25). The isomerase activity decreased to 73% of optimum at 4° C. and 63% of optimum at 37° C.
The concentration of linoleic acid was tested from 0 to 100 ppm (FIG. 26). The optimum concentration for linoleic add was determined to be 40 ppm.

For experiment [5], the target named is T1, Propionibacterium acnes ATCC 6919 linoleate isomerase (10,12-linoleate isomerase) (Cutibacterium acnes, UniProt Q6A8X5).
T1 construct: gene not cloned in this document
Description: Linoleate isomerase activity in crude soluble extract, effect of cofactors, chelators, sulfhydryl reagents and substrate level. In kind it is biochemical. As to conditions: increasing linoleic acid levels, FIGS. 18 and 19. How it is done:
as §2
Enzyme extracts were prepared by French Press and the extract fractionated as outlined in FIG. 15. Taking the total isomerase activity in fraction A as 100%, over 93% of the activity was detected in the soluble protein fraction (B) Less than 1% of the isomerase activity was found in the washed pellet, or membrane fraction (C). Approximately 2% of the activity was located in the buffer fraction (D), after the pellet washing and centrifugation steps. Thus, the P. acnes isomerase clearly is not a membrane protein, unlike the isomerase activities in L. reuteri PYR8 and other strains examined to date.
Calcium and magnesium also had no effect.
as §1

A further experiment concerns L. reuteri PYR8. The experiment in a line: Whole cell biotransformation of linoleic acid to CLA. The class given is cell-based, Lactobacillus reuteri. As to conditions: for (cis,trans)-9,11-CLA formation on addition of nonionic detergent: detergents added to 0.1-0.5% final concentration.
The test system of experiment [6] is isolated linoleate isomerase (source organism not stated with the values). Description: Michaelis-Menten kinetics of isolated linoleate isomerase (linoleic acid substrate, oleic acid inhibition).
The subject of a further experiment is linoleate isomerase. In kind it is biochemical. As to conditions: pH optimum of about 7.5.

T1 sequence (Q6A8X5 entry or part of it): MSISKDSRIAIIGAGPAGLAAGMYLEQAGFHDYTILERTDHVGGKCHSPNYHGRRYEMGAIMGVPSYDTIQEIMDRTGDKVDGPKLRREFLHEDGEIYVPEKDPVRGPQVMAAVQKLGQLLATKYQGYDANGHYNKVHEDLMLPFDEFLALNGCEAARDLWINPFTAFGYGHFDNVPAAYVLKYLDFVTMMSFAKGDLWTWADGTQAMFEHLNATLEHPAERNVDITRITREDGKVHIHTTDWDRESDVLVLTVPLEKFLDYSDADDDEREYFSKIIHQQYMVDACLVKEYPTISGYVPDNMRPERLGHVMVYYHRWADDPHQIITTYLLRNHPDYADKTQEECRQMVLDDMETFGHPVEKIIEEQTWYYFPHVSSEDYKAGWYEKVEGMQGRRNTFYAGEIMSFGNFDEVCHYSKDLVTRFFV
Description for L. reuteri PYR8: Cultures were grown and harvested as described above. Washed cells were resuspended in either fresh growth medium or 0.1 M Tris pH 8.0 buffer containing linoleic acid at various concentrations.
Samples were taken at appropriate intervals and analyzed for CLA as described in Example 2. In some experiments, various detergents were added to 0.1-0.5% final concentration. […] About 5 mL solvent was added to about 20 mL aqueous cell suspension in a 125 mL baffled shake flask incubated at room temperature.
Linoleic acid was added as 99% LA, dissolved in propyleneglycol (100 mg/ml solution) or emulsified with 0.5, 5 or 30% lecithin. The emulsion was prepared by blending the linoleic acid and the lecithin with the reaction medium before the addition of the cells. Linoleic acid was added at 1000 and 2000 ppm.
In the second experiment, cell recycle was studied with cells that have performed the biotransformation at different levels of linoleic acid. Cells were harvested, resuspended in breakage buffer at a 10-fold concentration, and linoleic acid was added at 1000, 1500, 2000, 2500 and 3000 ppm level. Given the higher linoleic acid concentration, the reaction was allowed to proceed for six hours. […] 1000 ppm linoleic acid were added and the reaction was followed for four hours.

In the case of `CCCCCCCC/C=C\CCCCCCCC(=O)OCCCCCCCCCCCCCCCCCC` [oleic acid stearyl ester], the “effect as inducer on expression and/or activity of the isomerase” value (from here on “effect as inducer”) in the experiment on 9,11 linoleate isomerase is reported as “No positive effect”.

For `NC(=O)C1=CN([C@@H]2O[C@H](COP(=O)(O)OP(=O)(O)OC[C@H]3O[C@@H](n4cnc5c(N)ncnc54)[C@H](OP(=O)(O)O)[C@@H]3O)[C@@H](O)[C@H]2O)C=CC1` [NADPH], the “effect of possible cofactor on isomerase activity” value (“effect of possible cofactor” below) in experiment [1] was “No significant effect”.

In the case of `CCCCCC/C=C/C=C\CCCCCCCC(=O)O` [CLA], the “effect of CLA from recycled reaction broth on conversion rate” value in experiment [2] is given as “no difference in conversion rate”.

For the compound `[Ca]` [Calcium], the “effect of metal on isomerase activity” value in [1] was “no effect”.

Turning to `Cc1cc2nc3c(=O)[nH]c(=O)nc-3n(C[C@H](O)[C@H](O)[C@H](O)COP(=O)(O)O)c2cc1C` [FMN], the “effect of possible cofactor” value in experiment [1] is listed as “No significant effect”.

Turning to `CCCCCCCCCCCCCCCCCC(=O)O` [stearic acid], in the experiment with 9,11 linoleate isomerase, the “effect as inducer” value is “No positive effect”.

`OCC(O)CO` [glycerol]: the “increase in activity on increasing the concentration” value in experiment [3] (extraction buffer) is 30%.

On to `c1cnc2c(c1)ccc1cccnc12` [1,10-phenanthroline], for which the “inhibition of isomerase activity” value in experiment [1] (1 mM) is “not inhibited”.

On to `CCCCCCCCO[C@@H]1O[C@H](CO)[C@@H](O)[C@H](O)[C@H]1O` [OG, octyl glucoside], for which the “isomerase specific activity higher than that of OTGP solubilized isomerase” value in [3] (1.5% (2×critical micelle concentration)) is listed as “about 20%”.

Turning to `CCCCCCCCCCCCCCCC(=O)O` [palmitic acid], the “effect as inducer” value in the experiment with 9,11 linoleate isomerase is “No positive effect”.

Regarding `CCN1C(=O)C=CC1=O` [N-ethylmaleimide], the “inhibition of isomerase activity” value in experiment [1] (100 μM) is recorded as “not inhibited”.

On to `NC(=O)c1ccc[n+]([C@@H]2O[C@H](COP(=O)([O-])OP(=O)(O)OC[C@H]3O[C@@H](n4cnc5c(N)ncnc54)[C@H](O)[C@@H]3O)[C@@H](O)[C@H]2O)c1` [NAD], for which the “effect of possible cofactor” value in experiment [1] is listed as “No significant effect”.

In the case of `[Mg]` [magnesium], the “effect of metal on isomerase activity” value in [1] is recorded as “no effect”.

For `CCCCC/C=C\C/C=C\CCCCCCCCO` [linoleyl alcohol], in the experiment with 9,11 linoleate isomerase, the “effect as inducer” value is “No positive effect”.

Turning to `CCCCC/C=C\C/C=C\CCCCCCCC(=O)OCC` [linoleic acid ethyl ester], in the experiment on 9,11 linoleate isomerase, the “effect as inducer” value was “No positive effect”.

Consider `NC(=O)C1=CN([C@@H]2O[C@H](COP(=O)(O)OP(=O)(O)OC[C@H]3O[C@@H](n4cnc5c(N)ncnc54)[C@H](O)[C@@H]3O)[C@@H](O)[C@H]2O)C=CC1` [NADH], for which, in experiment [1], the “effect of possible cofactor” value is recorded as “No significant effect”.

As to `CCCCC/C=C\C/C=C\CCCCCCCC(=O)O` [linoleic acid, (cis,cis)-9,12-linoleic acid], the “optimum concentration for linoleic acid” value in experiment [4] came to 40 ppm. Also, the “substrate inhibition by linoleic acid” value in experiment [5] is recorded as “not subject to the same type of substrate inhibition”. The “effect as inducer” value with 9,11 linoleate isomerase was “No positive effect”. Further, the substrate inhibition entry in the experiment with L. reuteri PYR8 (up to 3000 ppm linoleic acid, cells 10-fold concentrated in breakage buffer) was “no substrate inhibition was detected”. The “linoleic acid concentration at which initial velocity decreases” value in experiment [6] is “about 60 μM”. In the experiment on linoleate isomerase (read-out: Km for linoleic acid), the Michaelis-Menten constant (Km) is roughly 8.1 µM.

As for `N[C@@H](CCC(=O)N[C@@H](CS)C(=O)NCC(=O)O)C(=O)O` [glutathione], in experiment [1], the “effect of possible cofactor” value is given as “No significant effect”.

In the case of `CCCCCCCC/C=C\CCCCCCCC(=O)OCCOCC(OCCO)C1OCC(OCCO)C1OCCO` (stereo not shown) [Tween-80], the “(cis,trans)-9,11-CLA formation on addition of nonionic detergent” value in the experiment with L. reuteri PYR8 is “does not significantly increase”.

Consider `NC(=O)c1ccc[n+]([C@@H]2O[C@H](COP(=O)([O-])OP(=O)(O)OC[C@H]3O[C@@H](n4cnc5c(N)ncnc54)[C@H](OP(=O)(O)O)[C@@H]3O)[C@@H](O)[C@H]2O)c1` [NADP], for which the “effect of possible cofactor” value in [1] is listed as “No significant effect”.

On to `CCCCCCCCCCCC(=O)O` [lauric acid], for which the “effect as inducer” value with 9,11 linoleate isomerase is given as “No positive effect”.

Consider `CCCCC/C=C\C/C=C\CCCCCCCC(=O)OC` [linoleic acid methyl ester], for which the “effect as inducer” value in the experiment with 9,11 linoleate isomerase is reported as “No positive effect”.

For `CCCCCCCCCCCCCC(=O)O` [myristic acid], the “effect as inducer” value with 9,11 linoleate isomerase was “No positive effect”.

Turning to `CCCCCCCC/C=C\CCCCCCCC(=O)O` [oleic acid], the “effect as inducer” value in the experiment with 9,11 linoleate isomerase is reported as “No positive effect”. The Ki on linoleate isomerase (read-out: Ki for oleic acid) is roughly 80 µM.

For `Nc1ncnc2c1ncn2[C@@H]1O[C@H](COP(=O)(O)OP(=O)(O)O)[C@@H](O)[C@H]1O` [ADP], in experiment [1], the “effect of possible cofactor” value was “No significant effect”.

For the compound `O=C(O)c1cc[c]([Hg][Cl])cc1` [p-chloromercuribenzoate], the “inhibition of isomerase activity” value in experiment [1] (5 μM) was “not inhibited”.

Take `CCCCCC/C=C\CCCCCCCC(=O)O` [palmitoleic acid]: in the experiment with 9,11 linoleate isomerase, the “effect as inducer” value is given as “No positive effect”.

Take Triton X-100: in the experiment on L. reuteri PYR8, the “(cis,trans)-9,11-CLA formation on addition of nonionic detergent” value is on record as “does not significantly increase”.

As to `[Ca+2].[Cl-].[Cl-]` [CaCl2], the “effect on enzyme activity” value is on record as “decreased the enzyme activity” in experiment [3] (Tris and phosphate buffer systems); “no effect on the activity” in experiment [3] (temperatures higher than 37° C.).

Consider `Cc1cc2nc3c(=O)[nH]c(=O)nc-3n(C[C@H](O)[C@H](O)[C@H](O)COP(=O)(O)OP(=O)(O)OC[C@H]3O[C@@H](n4cnc5c(N)ncnc54)[C@H](O)[C@@H]3O)c2cc1C` [FAD], for which, in experiment [1], the “effect of possible cofactor” value was “No significant effect”.
